In patent US6110962A, “11-aryl-benzo[B]naphtho[2,3-D]furans and 11-aryl-benzo[B]naphtho[2,3-D]thiophenes useful in the treatment of insulin resistance and hyperglycemia” (American Home Products Corporation, priority 1999, dated 2000):
Like-named read-outs stand apart in the source and are kept apart here.

How the values were obtained:
Human recombinant PTP1B = target: T1, Human recombinant PTP1B (Homo sapiens, UniProt P18031); type: biochemical; details: read-out: IC50
T1 construct: made in house
T1 sequence (P18031 1-435): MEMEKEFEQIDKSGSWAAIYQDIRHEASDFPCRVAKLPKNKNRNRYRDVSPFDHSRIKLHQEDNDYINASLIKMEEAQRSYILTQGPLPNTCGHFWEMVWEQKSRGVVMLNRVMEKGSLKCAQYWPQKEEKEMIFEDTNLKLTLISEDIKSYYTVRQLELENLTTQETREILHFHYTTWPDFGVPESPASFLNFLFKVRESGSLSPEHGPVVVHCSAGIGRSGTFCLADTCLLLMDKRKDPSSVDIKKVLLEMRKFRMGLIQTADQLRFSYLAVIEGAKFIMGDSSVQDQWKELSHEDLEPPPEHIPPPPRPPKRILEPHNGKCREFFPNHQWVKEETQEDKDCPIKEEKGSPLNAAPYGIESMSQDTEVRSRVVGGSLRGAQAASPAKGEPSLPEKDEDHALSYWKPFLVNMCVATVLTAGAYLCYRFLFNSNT

diabetic (ob/ob) mice = assay: Blood glucose lowering activity in diabetic (ob/ob) mice; type: in vivo, mouse; details: Mus musculus, po, ob/ob mice
Procedure: The blood glucose lowering activity of representative compounds of this invention were determined in an in vivo standard procedure using diabetic (ob/ob) mice. The procedures used and results obtained are briefly described below. The non-insulin dependent diabetic (NIDDM) syndrome can be typically characterizes by obesity, hyperglycemia, abnormal insulin secretion, hyperinsulinemia and insulin resistance. […] In each test procedure, mice [Male or female ob/ob (C57 B1/6J) and their lean litermates (ob+ or +/+, Jackson Laboratories) ages 2 to 5 months (10 to 65 g)] of a similar age were randomized according to body weight into 4 groups of 10 mice. The mice were housed 5 per cage and are maintained on normal rodent chow with water ad libitum. Mice received test compound daily by gavage (suspended in 0.5 ml of 0.5% methyl cellulose); dissolved in the drinking water; or admixed in the diet. […] The dose is calculated based on the fed weekly body weight and is expressed as active moiety. […] Control mice received vehicle only. On the morning of Day 4, 7 or 14 two drops of blood (approximetly 50 ul) were collected into sodium fluoride containing tubes either from the tail vein or after decapitation. For those studies in which the compound was administered daily by gavage the blood samples were collected two hours after compound administration. The plasma was isolated by centrifugation and the concentration of glucose is measured enzymatically on an Abbott V. P. Analyzer. […] Analysis of variance followed by Dunett's Comparison Test (one-tailed) are used to estimate the significant difference between the plasma glucose values from the control group and the individual compound treated groups (CMS SAS Release 5.18).

[1] = test system: rat hepatic microsomal PTPases; details: PTPase activity, compound at 50 μM
[2] = 96 h, plasma glucose Day 4, 7 or 14, read-out: % Change Glucose from Vehicle
[3] = read-out: % Change Insulin from Vehicle

IC50 (Human recombinant PTP1B): 83 nM | % Change from Control [1]: -60.67%
SMILES: O=C(O)[C@@H](Cc1ccccc1)Oc1c(Br)cc(-c2c3ccccc3c(Br)c3oc4ccccc4c23)cc1Br [Example 216, (R)-2-[2,6-Dibromo-4-(6-bromo-benzo[b]naphtho[2,3-d]furan-11-yl)-phenoxy]-3-phenyl-propionic acid]
change in vivo at 5 mg/kg (diabetic (ob/ob) mice; [2]): -14.8% | change in vivo at 10 mg/kg (diabetic (ob/ob) mice; [2]): -28.7% | change in vivo at 5 mg/kg (diabetic (ob/ob) mice; [3]): -55.9% | change in vivo at 10 mg/kg (diabetic (ob/ob) mice; [3]): -69.4%
